Measured values from ChEMBL document CHEMBL1149216, “Benzene-di-N-octylcarbamates as conformationally constrained phospholipase A(2) inhibitors” (Bioorg Med Chem Lett, 2004).

How the values were obtained:
[1] = molecular target: Phospholipase A2, major isoenzyme (Sus scrofa) (UniProt P00592); assay: k_2 value calculated from 1/Ki=(1/Ks)(k2/k_2); details: naja mocambique mocambique
[2] = molecular target: Phospholipase A2, major isoenzyme (Sus scrofa) (UniProt P00592); assay: Pre-steady-state inhibition constant against phospholipase A2; details: naja mocambique mocambique

Chain of Phospholipase A2, major isoenzyme (Sus scrofa) (P00592 23-146 limits assumed): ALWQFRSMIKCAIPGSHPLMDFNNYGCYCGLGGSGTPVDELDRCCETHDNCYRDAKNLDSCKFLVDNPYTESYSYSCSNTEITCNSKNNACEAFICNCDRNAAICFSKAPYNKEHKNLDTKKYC

Structure (SMILES) | k 2 [1] | K2 [2] | Ks [2]
CCCCCCCCNC(=O)Oc1ccc(OC(=O)NCCCCCCCC)cc1 | 0.15 s⁻¹ | 0.21 s⁻¹ | 21 µM
CCCCCCCCNC(=O)Oc1ccccc1OC(=O)NCCCCCCCC | 0.028 s⁻¹ | 0.17 s⁻¹ | 68 µM
CCCCCCCCNC(=O)Oc1cccc(OC(=O)NCCCCCCCC)c1 | 0.033 s⁻¹ | 0.13 s⁻¹ | 16 µM
